In patent publication US10150734B2, “Solid forms of 2-(5-(3-fluorophenyl)-3-hydroxypicolinamido)acetic acid, compositions, and uses thereof” (Akebia Therapeutics, Inc., priority 2015, dated 2018):
Converted amounts (≈) assume the structure as drawn. “Also recorded” adds a separate entry of the source. Blank lines part the entries; values can stand above or below the molecule they belong to.

Columns and labels:
[1] = Competitive slurry experiment of Forms A, D and G; format: physicochemical; conditions: mixture of Forms A, D and G slurried in Water, RT
Procedure: To evaluate relative stability of the anhydrate polymorphs, competitive slurry experiments of Forms A, D and G were conducted as described in below and summarized in Table 12. In all three solvent systems, water, 1:2 v/v IPAc/heptane, and toluene, Form A was the final polymorph after equilibration for 8 days.
Slurry experiments were performed using the following procedure: a mixture of Form A (˜12.0 mg, Compound 1), Form D (˜12.0 mg) and Form G (˜12.0 mg) were weighed into a 20.0 mL clear vial equipped with magnetic stir bars (Table 12). Water, IPAc/Heptane (1:2 V/V) and toluene were used as the solvent systems for these competitive slurry experiments. Three selected solvents, 1.0 mL, were added to achieve free-flowing slurry and allowed to equilibrate at room temperature.

[2] = Single form slurry experiments of Forms A, D and G; format: physicochemical; conditions: for Outcome in the single form and competitive slurry experiments (in words): ambient temperature, all tested conditions
Procedure: Single form slurry experiments were conducted for Forms A, D and G in three solvents stems, water, 1:2 v/v IPAc/heptane, and toluene to evaluate their physical form stability as a single polymorph (Table 14). Form A remained unchanged at six day time point. […] Form D remained unchanged for three days in water but converted to a mixture A and D at six days. In 1:2 IPAc/heptane and toluene, Form D converted to a mixture of A and D at three days and then Form A at six days. […] Form D is also a metastable polymorph but its conversion to Form A is kinetically slower than Form G. The conversion was the slowest in water partly due to low solubility.
Approximately 10-20 mg of Forms A, D and G were weighed into 8 mL clear vials equipped with magnetic stir bars (Table 14). Water, IPAc/Heptane (1:2 V/V) and toluene were used as the solvent systems for these competitive slurry experiments. Three selected solvents, 1.0 mL, were added to achieve free-flowing slurry and allowed to equilibrate at room temperature. All slurries will be isolated via centrifuge filtration after three day and six days of equilibration.

[3] = Thermal stability experiments (solid stored at 60 °C; XRPD and HPLC); conditions: for Physical form / XRPD pattern change after storage at 60 °C for seven days (in words) / Chemical stability / degradation by HPLC after storage at 60 °C for seven days (in words): solid
[4] = Aqueous solubility (slurry in deionized water at room temperature, filtrate by HPLC, solids by XRPD)
Procedure: Approximately 14-25 mg of Forms A, D and G were transferred to 20 mL vials equipped with magnetic stir bars. 1.0 mL of deionized water was added and the resulting free flowing slurry was allowed to equilibrate over 1 and 7 days period with stirring at room temperature. […] The filtrates were analyzed by HPLC to determine solubility.

[5] = Dynamic vapour sorption (moisture sorption) with XRPD of post-DVS material; format: physicochemical; conditions: for Moisture Sorption 60% RH / Moisture adsorbed at 60% RH / Moisture Sorption 90% RH: 25.0 °C; for XRPD analysis of the post-DVS material: after DVS and drying at 60 °C for 2 hours; for Hygroscopicity (in words): from DVS moisture sorption
Procedure: Dynamic vapour sorption experiment was carried out by first holding the sample at 40% RH and 25.0° C. until an equilibrium weight was reached or for a maximum of four hours. The sample was then subjected to an isothermal (at 25.0° C.) adsorption scan from 40 to 90% RH in steps of 10%. The sample was allowed to equilibrate to an asymptotic weight at each point for a maximum of four hours. Following adsorption, a desorption scan from […] to 5% RH (at 25.0° C.) was run in steps of 10% again allowing a maximum of four hours for equilibration to an asymptotic weight. An adsorption scan was then performed from 0 to 40% RH in steps of 10%. The sample was then dried for no less than two hours at 60.0° C. and the resulting solid analyzed by XRPD.

[6] = Thermal holding (TGA thermal hold) experiments of salts, XRPD of resulting solid; format: physicochemical
[7] = Stability of crystalline materials from selected salts in different humidity (XRPD); format: physicochemical; conditions: before humidity exposure
From the text: Table 49 provides thermal stability data. Table 50 provides TGA thermal data.

[8] = Thermal holding (TGA thermal hold) experiments of salts, XRPD of resulting solid; format: physicochemical; remark: listed apart in the source
Procedure: Salt I, Salt II, Salt III, Salt IV, Salt V, Salt VI, Salt VII, Salt VIII, Salt IX and Salt X were characterized to evaluate its physical form and stability.
In an effort to isolate a high melt crystal form, the material was held at 130° C. for 2 minutes followed by cooling to ambient temperature.
In an effort to isolate a high melt crystal form through a dehydration/recrystallization process, Salt IV was held at 130° C. for 2 minutes followed by cooling to ambient temperature.

[9] = Competitive slurry of calcium, potassium and sodium salts in acetone; format: physicochemical
Procedure: Calcium, sodium, and potassium salts were used to setup different competitive slurry experiments. For competitive slurry of calcium salts (˜5-6 mg of Salt I and Salt II) were weighed into a 5.0 mL clear vial equipped with magnetic stir bars. These steps were repeated for potassium salt material (˜5-6.5 mg of Salt III) and sodium salt materials (˜2.6-6.4 mg of Salt IV and Salt V). […] All slurries, 400 μL, were filtered through 0.45 micron centrifuge filters after one and seven days of equilibration. The solids were analyzed by XRPD to check for salt conversion (Table 36).

[10] = Slurry of a single salt (seven days of stirring in water / acetone), XRPD; format: physicochemical
[11] = deionized water, room temperature, equilibrated with stirring, filtrate by HPLC

SMILES: O=C(O)CNC(=O)c1ncc(-c2cccc(F)c2)cc1O [Form A, 2-(5-(3-fluorophenyl)-3-hydroxypicolinamido)acetic acid]
- XRPD, Day 1 [1]: A + D
- Outcome in the single form and competitive slurry experiments (in words) [2]: most stable polymorph
- HPLC (% AUC) ([3]; after storage at 60.0 °C): >99.9 % AUC
- Parent Material HPLC (% AUC) ([3]; before storage at 60.0 °C): >99.9 % AUC
- Physical form / XRPD pattern change after storage at 60 °C for seven days (in words) [3]: No chemical and physical form changes
- Chemical stability / degradation by HPLC after storage at 60 °C for seven days (in words) [3]: No chemical and physical form changes; also recorded: chemically stable
- Solubility (extrapolated values based on the standard curve 0.008-0.2 mg/mL) [4, 11]: 2.6 µg/mL (≈ 8.96 µM)
- Moisture Sorption 60% RH ([5]; DVS, 60% RH): 0%
- Moisture adsorbed at 60% RH ([5]; DVS, 60% RH): 0 wt %
- Moisture Sorption 90% RH ([5]; DVS, 90% RH): 6.1 wt %
- Moisture Sorption 90% RH ([5]; DVS, 90% RH, listed as A): 6.1 wt %
- Weight moisture uptake at 60% RH ([5]; DVS, 60% RH): about 0 % weight
- Weight moisture uptake at 90% RH ([5]; DVS, 90% RH): about 6.1 % weight
- XRPD analysis of the post-DVS material [5]: consistent with the starting material
- Hygroscopicity (in words) [5]: moderately hygroscopic

SMILES: O=C(O)CNC(=O)c1ncc(-c2cccc(F)c2)cc1O [Form D, 2-(5-(3-fluorophenyl)-3-hydroxypicolinamido)acetic acid]
- XRPD, Day 1 [1]: A + D
- Outcome in the single form and competitive slurry experiments (in words) [2]: converted to Form A
- XRPD, Day 3 ([2]; single form slurry, IPAc/Heptane (1:2 V/V), RT): A + D
- XRPD, Day 3 ([2]; single form slurry, Toluene, RT): A + D
- XRPD, Day 6 ([2]; single form slurry, Water, RT, day 6): A + D
- HPLC (% AUC) ([3]; after storage at 60.0 °C): >99.9 % AUC
- Parent Material HPLC (% AUC) ([3]; before storage at 60.0 °C): >99.9 % AUC
- Physical form / XRPD pattern change after storage at 60 °C for seven days (in words) [3]: maintained its chemical and physical form
- Chemical stability / degradation by HPLC after storage at 60 °C for seven days (in words) [3]: maintained its chemical and physical form; also recorded: chemically stable
- Solubility (extrapolated values based on the standard curve 0.008-0.2 mg/mL) [4, 11]: 490 µg/mL (≈ 1690 µM)
- Moisture Sorption 60% RH ([5]; DVS, 60% RH): 0.7%
- Moisture adsorbed at 60% RH ([5]; DVS, 60% RH): 0.7 wt %
- Moisture Sorption 90% RH ([5]; DVS, 90% RH): 1.0 wt %
- Moisture Sorption 90% RH ([5]; DVS, 90% RH, listed as D): 1.0 wt %
- Weight moisture uptake at 60% RH ([5]; DVS, 60% RH): about 0.7 % weight
- Weight moisture uptake at 90% RH ([5]; DVS, 90% RH): about 1.0 % weight
- XRPD analysis of the post-DVS material [5]: consistent with the starting material
- Hygroscopicity (in words) [5]: slightly hygroscopic

SMILES: O=C([O-])CNC(=O)c1ncc(-c2cccc(F)c2)cc1O.[Na+] [Salt IX]
- XRPD of solid after thermal holding experiment at 150 °C ([6]; held at 150 °C): consistent with the starting material
- Physical form / XRPD pattern change after storage at 60 °C for seven days (in words) [3]: no change in XRPD pattern
- Chemical stability / degradation by HPLC after storage at 60 °C for seven days (in words) [3]: no degradation
- Form after seven days of stirring in water and acetone ([10]; water and acetone): converted to Salt VIII or Salt IV
- Moisture Sorption ([5]; 60% RH): 60% RH: 0.3 wt %
- Moisture Sorption ([5]; 90% RH): 90% RH: 0.3 wt %
- Moisture adsorbed at 60% RH ([5]; DVS, 60% RH): 0.3 wt %
- Moisture Sorption 90% RH ([5]; DVS, 90% RH): 0.3 wt %
- XRPD analysis of the post-DVS material [5]: consistent with Salt IV of Compound 1
- Hygroscopicity (in words) [5]: moderately hydroscopic

Now from value to molecule, other results behind:

- XRPD Post thermal hold ([6]; 180-260 °C at 10 °C/min, hold 260 °C/2 min): Salt VI
- XRPD Post thermal hold, sample left on bench top, 24 hrs ([6]; 180-260 °C at 10 °C/min, hold 260 °C/2 min, then bench top 24 hrs): Salt VI
- XRPD of solid after thermal hold at 260 °C ([6]; held at 260 °C): conversion to a new salt (Salt VI)
- XRPD Initial [7]: Salt IV
- HPLC (% AUC) ([3]; after thermal stress at 60.0 °C): 99.9 % AUC
- Parent Material HPLC (% AUC) ([3]; parent material before thermal stress): 99.9 % AUC
- XRPD, aliquot time point Day 1 ([3]; solid stored at 60.0 °C, day 1): Salt IV
- XRPD, aliquot time point Day 7 ([3]; solid stored at 60.0 °C, day 7): Salt IV
- Physical form / XRPD pattern change after storage at 60 °C for seven days (in words) [3]: no polymorph conversion or degradation
- Chemical stability / degradation by HPLC after storage at 60 °C for seven days (in words) [3]: no polymorph conversion or degradation
- Form change after slurrying in water for 13 days ([4]; aqueous solubility study, 13 days): no form change
- Solubility [4, 11]: 19000 µg/mL
- Aqueous Solubility ([4]; deionized water, room temperature, standard curve linear range 0.008 to 0.2 mg/mL): 19000 µg/mL
- Aqueous Solubility: XRPD (1 day) of solids ([4]; solid form after 1 day slurry in water): Salt IV + Extra
- XRPD Post thermal hold ([8]; 30-130 °C at 10 °C/min, hold 130 °C/2 min): Salt IV
- XRPD Post thermal hold, sample left on bench top, 24 hrs ([8]; 30-130 °C at 10 °C/min, hold 130 °C/2 min, then bench top 24 hrs): Salt IV
- XRPD Pre-thermal hold ([8]; before TGA thermal hold): Salt IV
- XRPD of solid after thermal hold at 130 °C for 2 minutes ([8]; held at 130 °C for 2 minutes, cooled to ambient temperature): consistent with Salt IV
- XRPD of solids, aliquot time point Day 1 ([9]; slurry of potassium or sodium salts in acetone + 0.05 mL water, RT, day 1): Salt V +
- XRPD of solids, aliquot time point Day 7 ([9]; slurry of potassium or sodium salts in acetone + 0.05 mL water, RT, day 7): Salt V
- hydration property [5]: monohydrate
- Moisture Sorption ([5]; 60% RH): 60% RH: 6.1 wt %
- Moisture Sorption ([5]; 90% RH): 90% RH: 6.5 wt %
- Moisture adsorbed at 60% RH ([5]; DVS, 60% RH): 6.1 wt %
- Moisture Sorption 90% RH ([5]; DVS, 90% RH): 6.5 wt %
- Moisture Sorption (hygroscopicity in words) ([5]; DVS, from uptake at 60% and 90% RH): (moderately
SMILES: O.O=C([O-])CNC(=O)c1ncc(-c2cccc(F)c2)cc1O.[Na+] [Salt IV]
- XRPD analysis of the post-DVS material [5]: consistent XRPD pattern as the starting material
- Hygroscopicity (in words) [5]: moderately hydroscopic; also recorded: moderately hygroscopic

- Physical form / XRPD pattern change after storage at 60 °C for seven days (in words) [3]: no change in XRPD pattern
- Chemical stability / degradation by HPLC after storage at 60 °C for seven days (in words) [3]: no degradation
- XRPD after seven days of stirring in acetone ([10]; acetone): no change in XRPD pattern
- Outcome of competitive slurry of salts (in words) ([9]; acetone (50 μL water added for potassium and sodium salts), room temperature, one and seven days): stable in an acetone slurry
- Moisture Sorption ([5]; 60% RH): 60% RH: 1.0 wt %
- Moisture Sorption ([5]; 90% RH): 90% RH: 2.7 wt %
- Moisture adsorbed at 60% RH ([5]; DVS, 60% RH): 1.0 wt %
- Moisture Sorption 90% RH ([5]; DVS, 90% RH): 2.7 wt %
- XRPD analysis of the post-DVS material [5]: consistent with the starting material
- Hygroscopicity (in words) [5]: moderately hydroscopic
SMILES: O=C([O-])CNC(=O)c1ncc(-c2cccc(F)c2)cc1O.[Na+] [Salt VIII]
